According to patent US20250235543A1, “MODIFIED PROTEINS AND PROTEIN DEGRADERS” (Cullgen (Shanghai), Inc., priority 2021, published 2025):

System: P300/CBP
Test: P300/CBP cellular protein degradation
Type: cell-based
Protocol: Cultured cells were washed with cold PBS once and lysed in cold RIPA buffer supplemented with protease inhibitors and phosphatase inhibitors (Beyotime Biotechnology). The solutions were then incubated at 4° C. for 30 min with gentle agitation to fully lysed cells. Cell lysates were centrifuged at 13,000 rpm for 10 min at 4° C. and pellets were discarded. Total protein concentrations in the lysates were determined following BCA assays (Beyotime Biotechnology). Cell lysates were mixed with Laemmli loading buffer and heated at 99° C. for 5 min. Proteins were resolved on SDS-PAGE and visualized using Western ECL Substrate kits on a ChemiDoc MP Imaging system (Bio-Rad). Protein bands were quantitated using the Image Lab software provided by Bio-Rad.

Compound | P300/CBP Degradation (100 nM)
CC(=O)N1CCc2c(c(N3CCCc4cc(-c5cnn(C)c5)c(C(F)F)cc43)nn2C2CCN(CC(=O)NCC(=O)Nc3ccccc3C(=O)Nc3nc(C)c([N+](=O)[O-])s3)CC2)C1 [CPD-209, 2-(2-(2-(4-(5-Acetyl-3-(7-(difluoromethyl)-6-(1-methyl-1H-pyrazol-4-yl)-3,4-dihydroquinolin-1(2H)-yl)-4,5,6,7-tetrahydro-1H-pyrazolo[4,3-c]pyridin-1-yl)piperidin-1-yl)acetamido)acetamido)-N-(4-methyl-5-nitrothiazol-2-yl)benzamide] | D (degradation activity < 30%)
CC(=O)N1CCc2c(c(N3CCCc4cc(-c5cnn(C)c5)c(C(F)F)cc43)nn2C2CCN(CC(=O)NCCC(=O)Nc3ccccc3C(=O)Nc3nc(C)c([N+](=O)[O-])s3)CC2)C1 [CPD-210, 2-(3-(2-(4-(5-Acetyl-3-(7-(difluoromethyl)-6-(1-methyl-1H-pyrazol-4-yl)-3,4-dihydroquinolin-1(2H)-yl)-4,5,6,7-tetrahydro-1H-pyrazolo[4,3-c]pyridin-1-yl)piperidin-1-yl)acetamido)propanamido)-N-(4-methyl-5-nitrothiazol-2-yl)benzamide] | D (degradation activity < 30%)
CC(=O)N1CCc2c(c(N3CCCc4cc(-c5cnn(C)c5)c(C(F)F)cc43)nn2C2CCN(CC(=O)NCCCC(=O)Nc3ccccc3C(=O)Nc3nc(C)c([N+](=O)[O-])s3)CC2)C1 [CPD-211, 2-(4-(2-(4-(5-Acetyl-3-(7-(difluoromethyl)-6-(1-methyl-1H-pyrazol-4-yl)-3,4-dihydroquinolin-1(2H)-yl)-4,5,6,7-tetrahydro-1H-pyrazolo[4,3-c]pyridin-1-yl)piperidin-1-yl)acetamido)butanamido)-N-(4-methyl-5-nitrothiazol-2-yl)benzamide] | D (degradation activity < 30%)
CC(=O)N1CCc2c(c(N3CCCc4cc(-c5cnn(C)c5)c(C(F)F)cc43)nn2C2CCN(CC(=O)NCCCCC(=O)Nc3ccccc3C(=O)Nc3nc(C)c([N+](=O)[O-])s3)CC2)C1 [CPD-212, 2-(5-(2-(4-(5-Acetyl-3-(7-(difluoromethyl)-6-(1-methyl-1H-pyrazol-4-yl)-3,4-dihydroquinolin-1(2H)-yl)-4,5,6,7-tetrahydro-1H-pyrazolo[4,3-c]pyridin-1-yl)piperidin-1-yl)acetamido)pentanamido)-N-(4-methyl-5-nitrothiazol-2-yl)benzamide] | D (degradation activity < 30%)
CC(=O)N1CCc2c(c(N3CCCc4cc(-c5cnn(C)c5)c(C(F)F)cc43)nn2C2CCN(CC(=O)NCCCCCC(=O)Nc3ccccc3C(=O)Nc3nc(C)c([N+](=O)[O-])s3)CC2)C1 [CPD-213, 2-(6-(2-(4-(5-Acetyl-3-(7-(difluoromethyl)-6-(1-methyl-1H-pyrazol-4-yl)-3,4-dihydroquinolin-1(2H)-yl)-4,5,6,7-tetrahydro-1H-pyrazolo[4,3-c]pyridin-1-yl)piperidin-1-yl)acetamido)hexanamido)-N-(4-methyl-5-nitrothiazol-2-yl)benzamide] | D (degradation activity < 30%)
CC(=O)N1CCc2c(c(N3CCCc4cc(-c5cnn(C)c5)c(C(F)F)cc43)nn2C2CCN(CC(=O)NCCCCCCC(=O)Nc3ccccc3C(=O)Nc3nc(C)c([N+](=O)[O-])s3)CC2)C1 [CPD-214, 2-(7-(2-(4-(5-Acetyl-3-(7-(difluoromethyl)-6-(1-methyl-1H-pyrazol-4-yl)-3,4-dihydroquinolin-1(2H)-yl)-4,5,6,7-tetrahydro-1H-pyrazolo[4,3-c]pyridin-1-yl)piperidin-1-yl)acetamido)heptanamido)-N-(4-methyl-5-nitrothiazol-2-yl)benzamide] | D (degradation activity < 30%)
CC(=O)N1CCc2c(c(N3CCCc4cc(-c5cnn(C)c5)c(C(F)F)cc43)nn2C2CCN(CC(=O)NCCCCCCCC(=O)Nc3ccccc3C(=O)Nc3nc(C)c([N+](=O)[O-])s3)CC2)C1 [CPD-215, 2-(8-(2-(4-(5-Acetyl-3-(7-(difluoromethyl)-6-(1-methyl-1H-pyrazol-4-yl)-3,4-dihydroquinolin-1(2H)-yl)-4,5,6,7-tetrahydro-1H-pyrazolo[4,3-c]pyridin-1-yl)piperidin-1-yl)acetamido)octanamido)-N-(4-methyl-5-nitrothiazol-2-yl)benzamide] | D (degradation activity < 30%)
CC(=O)N1CCc2c(c(N3CCCc4cc(-c5cnn(C)c5)c(C(F)F)cc43)nn2C2CCN(CC(=O)NCCCCCCCCC(=O)Nc3ccccc3C(=O)Nc3nc(C)c([N+](=O)[O-])s3)CC2)C1 [CPD-216, 2-(9-(2-(4-(5-Acetyl-3-(7-(difluoromethyl)-6-(1-methyl-1H-pyrazol-4-yl)-3,4-dihydroquinolin-1(2H)-yl)-4,5,6,7-tetrahydro-1H-pyrazolo[4,3-c]pyridin-1-yl)piperidin-1-yl)acetamido)nonanamido)-N-(4-methyl-5-nitrothiazol-2-yl)benzamide] | D (degradation activity < 30%)
CC(=O)N1CCc2c(c(N3CCCc4cc(-c5cnn(C)c5)c(C(F)F)cc43)nn2C2CCN(CC(=O)NCCCCCCCCCC(=O)Nc3ccccc3C(=O)Nc3nc(C)c([N+](=O)[O-])s3)CC2)C1 [CPD-217, 2-(10-(2-(4-(5-Acetyl-3-(7-(difluoromethyl)-6-(1-methyl-1H-pyrazol-4-yl)-3,4-dihydroquinolin-1(2H)-yl)-4,5,6,7-tetrahydro-1H-pyrazolo[4,3-c]pyridin-1-yl)piperidin-1-yl)acetamido)decanamido)-N-(4-methyl-5-nitrothiazol-2-yl)benzamide] | D (degradation activity < 30%)
CC(=O)N1CCc2c(c(N3CCCc4cc(-c5cnn(C)c5)c(C(F)F)cc43)nn2C2CCN(CC(=O)NCCCCCCCCCCC(=O)Nc3ccccc3C(=O)Nc3nc(C)c([N+](=O)[O-])s3)CC2)C1 [CPD-218, 2-(11-(2-(4-(5-Acetyl-3-(7-(difluoromethyl)-6-(1-methyl-1H-pyrazol-4-yl)-3,4-dihydroquinolin-1(2H)-yl)-4,5,6,7-tetrahydro-1H-pyrazolo[4,3-c]pyridin-1-yl)piperidin-1-yl)acetamido)undecanamido)-N-(4-methyl-5-nitrothiazol-2-yl)benzamide] | D (degradation activity < 30%)
